PubChem BioAssay AID1259408 (Genetic Toxicology Data Bank (GENE-TOX), 2018)
Activity calls are given as the source filed them. No rule for the calls is given here.

System: GENE-TOX genotoxicity assays, various organisms and cells
Experiment: GENE-TOX mutagenicity studies
Settings: for call: Assay Type: In vivo carcinogenicity studies
[1] = Species/Cell Type: Mammalian polychromatic erythrocytes, Assay Type: Micronucleus test, chromosome aberrations, Assay Code: MNT+, Evaluation Type: Evaluation B (Post-1980)
[2] = Species/Cell Type: Saccharomyces cerevisiae, Assay Type: Mitotic recombination or gene conversion, Assay Code: YEC-, Evaluation Type: Evaluation A (Pre-1980)
[3] = Species/Cell Type: Salmonella typhimurium (one or more of the five standard strains: TA98, TA100, TA1535, TA1537, and TA1538), Assay Type: Histidine reverse gene mutation, Ames assay, Assay Code: SAL+, Evaluation Type: Evaluation A (Pre-1980)
[4] = Species/Cell Type: Nonhuman, Assay Code: CCG+L, Evaluation Type: Evaluation A (Pre-1980)
[5] = Species/Cell Type: Saccharomyces cerevisiae, Assay Type: Mitotic recombination or gene conversion, Assay Code: YEH+, Evaluation Type: Evaluation A (Pre-1980)
[6] = Species/Cell Type: Salmonella typhimurium, Assay Type: Forward and reverse gene mutation, host-mediated assay, Assay Code: HMA-, Evaluation Type: Evaluation A (Pre-1980)
[7] = Species/Cell Type: Mammalian polychromatic erythrocytes, Assay Type: Micronucleus test, chromosome aberrations, Assay Code: MNTT, Evaluation Type: Evaluation B (Post-1980)

With `Clc1cccc(Cl)c1Cl` the mutagenic call [1] was “active; positive”.

With `CNC(=O)Nc1nc2ccccc2s1` the mutagenic call [2] was “inactive; negative”.

For `O=C(O)c1ccc2c([N+](=O)[O-])cccc2n1`, the mutagenic call [3] was “active; positive”.

In the case of `Cn1c(=O)c2c(n(C)c1=O)n(C)c(=O)n2C`, the mutagenic call (Species/Cell Type: Allium cepa, Assay Type: Chromosome aberrations, Assay Code: ALC+D, Dose Response: With dose response, Evaluation Type: Evaluation A (Pre-1980)) is reported as “active; positive”.

`ClC(Cl)=C(Cl)Cl` was tested, and the mutagenic call (Species/Cell Type: Fischer rat embryo (RLV/1706) cells, Assay Type: Cell transformation, viral enhanced, Assay Code: CTR+, Evaluation Type: Evaluation A (Pre-1980)) was “active; positive”, the call [4] was “active; positive” and the mutagenic call (Species/Cell Type: Saccharomyces cerevisiae, Assay Type: Mitotic recombination or gene conversion, Assay Code: YEC+, Evaluation Type: Evaluation A (Pre-1980)) was “active; positive”. The mutagenic call [5] was “active; positive”, the mutagenic call (Species/Cell Type: Saccharomyces cerevisiae, Assay Type: Reverse gene mutation, Assay Code: YER+, Evaluation Type: Evaluation A (Pre-1980)) was “active; positive” and the mutagenic call (Species/Cell Type: Syrian hamster embryo (SA7/SHE) cells, Assay Type: Cell transformation, viral enhanced, Assay Code: CT7-, Evaluation Type: Evaluation A (Pre-1980)) was “inactive; negative”.

With `Cc1c(N(C)CS(=O)(=O)O)c(=O)n(-c2ccccc2)n1C` the mutagenic call (Species/Cell Type: Human, Assay Type: Sister-chromatid exchange (SCE) in vitro, Assay Code: SC1T, Evaluation Type: Evaluation B (Post-1980)) was “no conclusion”.

In the case of `c1ccc2c(c1)-c1cccc3c1c-2cc1ccccc13`, the call (Species/Cell Type: Nonhuman, Assay Code: CCG+, Evaluation Type: Evaluation A (Pre-1980)) is reported as “active; positive”, the mutagenic call (Species/Cell Type: Nonhuman, Assay Type: Sister-chromatid exchange (SCE) in vivo, Assay Code: SC3+, Evaluation Type: Evaluation B (Post-1980)) is reported as “active; positive” and the mutagenic call (Species/Cell Type: Nonhuman, Assay Type: Sister-chromatid exchange (SCE) in vivo, Assay Code: SC3T, Evaluation Type: Evaluation A (Pre-1980)) is reported as “no conclusion”.

For `O=C(O)c1c(Cl)c(Cl)c(Cl)c(Cl)c1-c1c2cc(Br)c(=O)c(Br)c-2oc2c(Br)c(O)c(Br)cc12`, the mutagenic call (Species/Cell Type: Bacillus subtilis (H17 vs M45), Assay Type: Rec-assay, spot test, DNA effects (bacterial DNA repair), Assay Code: REWT, Evaluation Type: Evaluation A (Pre-1980)) was “no conclusion”.

For `O=[N+]([O-])c1ccc(C=NCCO)o1`, the mutagenic call [3] was “active; positive”.

For `CCN(CCCl)CCCNc1c2ccccc2nc2ccccc12`, the mutagenic call (Species/Cell Type: Chinese hamster ovary (CHO) cells, Assay Type: Forward gene mutation at the HPRT locus, Assay Code: CHO+, Evaluation Type: Evaluation B (Post-1980)) was “active; positive”.

For `Cc1c2ccccc2cc2c3c(ccc12)[C@@H](O)[C@H](O)C=C3`, the mutagenic call (Species/Cell Type: Chinese hamster lung (V79) cells, Assay Type: Forward gene mutation at the HPRT or ouabain locus, Assay Code: V79+, Evaluation Type: Evaluation A (Pre-1980)) was “active; positive” and the call [4] was “active; positive”.

`COc1cc(NNc2ccccc2)ccc1N=O` was tested, and the mutagenic call [3] was “active; positive”.

In the case of `CN[C@@H]1[C@H](O[C@H]2[C@H](O[C@H]3[C@H](O)[C@@H](O)[C@H](N=C(N)N)[C@@H](O)[C@@H]3N=C(N)N)O[C@@H](C)[C@]2(O)CO)O[C@@H](CO)[C@H](O)[C@H]1O`, the mutagenic call (Species/Cell Type: Vicia faba, Assay Type: Chromosome aberrations, Assay Code: VIC-, Evaluation Type: Evaluation A (Pre-1980)) is reported as “inactive; negative”.

In the case of `O=C(CCN1CCCC1)c1ccc2c(c1)OCO2`, the mutagenic call [6] is reported as “inactive; negative”.

For `NC(=O)N/N=C(/CCN1CCCCC1)c1ccc([N+](=O)[O-])o1`, the mutagenic call (Species/Cell Type: Escherichia coli WP2, Assay Type: Tryptophan reverse gene mutation, Assay Code: WP2+, Evaluation Type: Evaluation A (Pre-1980)) was “active; positive” and the mutagenic call (Species/Cell Type: Escherichia coli WP2 UVRA, Assay Type: Tryptophan reverse gene mutation, Assay Code: WPU+, Evaluation Type: Evaluation A (Pre-1980)) was “active; positive”.

With `CCCCC1C(=O)N(c2ccccc2)N(c2ccccc2)C1=O` the mutagenic call (Species/Cell Type: Mammalian germ cells, Sex: Male, Assay Type: Chromosome aberrations in vivo, Assay Code: CY9-, Evaluation Type: Evaluation A (Pre-1980)) was “inactive; negative”, the mutagenic call [1] was “active; positive” and the mutagenic call (Species/Cell Type: Mammalian polychromatic erythrocytes, Assay Type: Micronucleus test, chromosome aberrations, Assay Code: MNTT, Evaluation Type: Evaluation A (Pre-1980)) was “no conclusion”. For the same molecule, the mutagenic call (Species/Cell Type: Rodents, Sex: Male, Assay Type: Dominant lethal test, Assay Code: DLT-, Evaluation Type: Evaluation A (Pre-1980)) was “inactive; negative” and the mutagenic call (Species/Cell Type: Salmonella typhimurium (one or more of the five standard strains: TA98, TA100, TA1535, TA1537, and TA1538), Assay Type: Histidine reverse gene mutation, Ames assay, Assay Code: SALT, Evaluation Type: Evaluation A (Pre-1980)) was “no conclusion”.

With `CN(N=O)C(=O)Nc1ccc(Cl)cc1` the mutagenic call (Species/Cell Type: Nonhuman, Assay Type: Sister-chromatid exchange (SCE) in vitro, Assay Code: SC2+D, Dose Response: With dose response, Evaluation Type: Evaluation B (Post-1980)) was “active; positive”.

In the case of `O=S1(=O)CCCCO1`, the mutagenic call (Species/Cell Type: Escherichia coli polA (W3119 vs P3478), Assay Type: Rec-assay, DNA effects (bacterial DNA repair), Assay Code: RE1+, Evaluation Type: Evaluation A (Pre-1980)) is reported as “active; positive”, the call (Species/Cell Type: Nonhuman, Assay Code: CCGT, Evaluation Type: Evaluation A (Pre-1980)) is reported as “no conclusion” and the mutagenic call [5] is reported as “active; positive”. For the same molecule, the mutagenic call [3] was “active; positive”, the mutagenic call (Species/Cell Type: Salmonella typhimurium, Assay Type: Forward and reverse gene mutation, host-mediated assay, Assay Code: HMA+, Evaluation Type: Evaluation A (Pre-1980)) was “active; positive” and the mutagenic call (Species/Cell Type: Schizosaccharomyces pombe, Assay Type: Reverse gene mutation, Assay Code: YEZ+, Evaluation Type: Evaluation A (Pre-1980)) was “active; positive”. For the same molecule, the mutagenic call (Species/Cell Type: Syrian hamster embryo (SHE) cells, Assay Type: Cell transformation, clonal assay, Assay Code: CTC+, Evaluation Type: Evaluation A (Pre-1980)) was “active; positive”.

`CC1=C(/C=C/C(C)=C/C=C/C(C)=C/C=C/C=C(C)/C=C/C=C(C)/C=C/C2=C(C)CCCC2(C)C)C(C)(C)CCC1` was tested, and the mutagenic call (Species/Cell Type: Bacillus subtilis (H17 vs M45T), Assay Type: Rec-assay, spot test, DNA effects (bacterial DNA repair), Assay Code: REXT, Evaluation Type: Evaluation A (Pre-1980)) was “no conclusion” and the mutagenic call [7] was “no conclusion”.

For `C[C@@H](CC[C@H](C)OS(C)(=O)=O)OS(C)(=O)=O`, the mutagenic call (Species/Cell Type: Rodents, Sex: Male, Assay Type: Dominant lethal test, Assay Code: DLT+, Evaluation Type: Evaluation A (Pre-1980)) was “active; positive”.

`CN(C)CCC(=O)c1ccc2c(c1)OCO2` was tested, and the mutagenic call [6] was “inactive; negative”.

`O=[N+]([O-])c1ccc(Oc2ccc(C(F)(F)F)cc2[N+](=O)[O-])cc1` was tested, and the mutagenic call [2] was “inactive; negative”.

With `CC(CN(C)C)CN1c2ccccc2CCc2ccccc21` (stereo unspecified) the mutagenic call (Species/Cell Type: Human, Sex: Male, Assay Type: Sperm morphology, Assay Code: SPHT, Evaluation Type: Evaluation A (Pre-1980)) was “no conclusion”.

`C/C=C/c1ccccc1` was tested, and the mutagenic call (Species/Cell Type: Human lymphocytes, Assay Type: Sister-chromatid exchange (SCE) in vitro, Assay Code: SCL+D, Dose Response: With dose response, Evaluation Type: Evaluation B (Post-1980)) was “active; positive” and the mutagenic call (Species/Cell Type: Human, Assay Type: Sister-chromatid exchange (SCE) in vitro, Assay Code: SC1+D, Dose Response: With dose response, Evaluation Type: Evaluation B (Post-1980)) was “active; positive”.

`CN=C(N)NC(=O)Nc1c(C)cccc1C` was tested, and the mutagenic call [7] was “no conclusion”.
